ChEMBL document CHEMBL1201862, “PubChem BioAssay data set” (2004)
Where “and” joins values, the source holds several entries; their conditions need not be identical. Identical values can stand only once. Calls of active or inactive are those of the source.

How the values were obtained:
Streptococcus = test: GAS UMAA2166 growth inhibition – luminescence, BacTiterGlo, counter-screen for streptokinase expression inhibitor project, dose response (AID 1915); assay type: functional, organism-based;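 further: potency for reduction of bacterial viability or growth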
[1] = test system: Streptococcus sp. 'group A'; test: Streptococcus pyogenes SK(-)GAS viability under kanamycin – luminescence, BacTiterGlo, confirmation, counter-screen for streptokinase expression inhibitor project, dose response (AID 1900); assay type: functional, organism-based
[2] = THP-1 cell cytotoxicity, dose response, cytotoxicity control for non-replicating M. tuberculosis project (AID 489025); assay type: functional
[3] = Vero E6 cell cytotoxicity, dose response, cytotoxicity control for non-replicating M. tuberculosis project, secondary assay (AID 492998); assay type: functional, VeroE6; settings: Vero C1008
cells = assay type: functional
Streptokinase A = target: T1, Streptokinase A (Streptococcus pyogenes serotype M1, UniProt P10520); test: viability-normalized secreted streptokinase activity reduction – plasminogen activation absorbance, OD405, dose response (AID 1914); assay type: functional, Streptococcus pyogenes M1 GAS;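 further: secreted streptokinase activity via plasminogen activation per viability signal from cell pellet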
T1 sequence (P10520 whole entry): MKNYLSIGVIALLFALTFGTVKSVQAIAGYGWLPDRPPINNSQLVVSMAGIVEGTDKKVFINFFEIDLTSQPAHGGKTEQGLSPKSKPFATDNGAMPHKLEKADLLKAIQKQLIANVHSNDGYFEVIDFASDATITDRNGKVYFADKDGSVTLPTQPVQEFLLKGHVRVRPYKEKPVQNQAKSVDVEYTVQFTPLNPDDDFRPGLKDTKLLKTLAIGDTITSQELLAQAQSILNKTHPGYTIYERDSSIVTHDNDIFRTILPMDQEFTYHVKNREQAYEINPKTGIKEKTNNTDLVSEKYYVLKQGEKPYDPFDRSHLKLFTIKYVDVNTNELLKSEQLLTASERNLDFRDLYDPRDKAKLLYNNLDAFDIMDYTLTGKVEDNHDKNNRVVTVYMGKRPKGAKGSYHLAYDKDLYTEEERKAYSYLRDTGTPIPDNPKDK

[4] = HepG2 cell cytotoxicity, dose response, cytotoxicity control for non-replicating M. tuberculosis project (AID 489018); assay type: functional; settings: Mycobacterium tuberculosis
Coagulation factor XII = target: T2, Coagulation factor XII (Homo sapiens, UniProt P00748); assay type: functional;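 further: activated factor XIIa alpha cleaving a fluorogenic AMC peptide substrate; inhibitor potency from loss of enzyme activity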
T2 sequence (P00748 whole entry): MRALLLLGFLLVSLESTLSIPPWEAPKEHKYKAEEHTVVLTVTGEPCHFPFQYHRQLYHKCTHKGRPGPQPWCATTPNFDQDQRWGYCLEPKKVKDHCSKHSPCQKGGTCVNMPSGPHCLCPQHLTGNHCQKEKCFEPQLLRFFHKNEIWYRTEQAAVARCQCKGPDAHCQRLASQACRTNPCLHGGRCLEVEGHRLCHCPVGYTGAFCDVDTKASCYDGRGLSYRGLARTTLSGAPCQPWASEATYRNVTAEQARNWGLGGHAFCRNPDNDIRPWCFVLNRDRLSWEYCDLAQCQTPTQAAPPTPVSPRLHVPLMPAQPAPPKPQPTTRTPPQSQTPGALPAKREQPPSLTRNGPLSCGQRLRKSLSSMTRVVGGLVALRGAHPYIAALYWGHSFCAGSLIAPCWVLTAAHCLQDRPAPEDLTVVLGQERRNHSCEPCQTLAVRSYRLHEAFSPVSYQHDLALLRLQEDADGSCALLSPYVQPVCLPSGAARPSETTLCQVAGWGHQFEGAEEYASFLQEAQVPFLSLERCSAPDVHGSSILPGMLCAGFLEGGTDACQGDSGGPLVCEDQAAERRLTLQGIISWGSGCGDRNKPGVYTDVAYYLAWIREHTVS

[5] = target: DNA dC->dU-editing enzyme APOBEC-3A (Homo sapiens, UniProt P31941); test: A3A deaminase inhibition for selectivity – biochemical, dose response (AID 504722); assay type: functional
DNA dC->dU-editing enzyme APOBEC-3A, sequence (P31941 whole entry): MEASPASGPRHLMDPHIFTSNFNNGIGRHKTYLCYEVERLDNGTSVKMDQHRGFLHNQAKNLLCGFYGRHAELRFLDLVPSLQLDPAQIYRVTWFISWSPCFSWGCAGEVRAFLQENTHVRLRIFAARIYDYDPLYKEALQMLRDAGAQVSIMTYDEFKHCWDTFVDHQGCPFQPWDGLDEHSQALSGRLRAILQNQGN

[6] = target: DNA dC->dU-editing enzyme APOBEC-3G (Homo sapiens, UniProt Q9HC16); test: Dose Response confirmation of small molecule APOBEC3G DNA Deaminase Inhibitors via a fluorescence-based single-stranded DNA deaminase assay. [Related pubchem assays (depositor defined):AID493012, AID493028]; assay type: functional
DNA dC->dU-editing enzyme APOBEC-3G, sequence (Q9HC16 whole entry): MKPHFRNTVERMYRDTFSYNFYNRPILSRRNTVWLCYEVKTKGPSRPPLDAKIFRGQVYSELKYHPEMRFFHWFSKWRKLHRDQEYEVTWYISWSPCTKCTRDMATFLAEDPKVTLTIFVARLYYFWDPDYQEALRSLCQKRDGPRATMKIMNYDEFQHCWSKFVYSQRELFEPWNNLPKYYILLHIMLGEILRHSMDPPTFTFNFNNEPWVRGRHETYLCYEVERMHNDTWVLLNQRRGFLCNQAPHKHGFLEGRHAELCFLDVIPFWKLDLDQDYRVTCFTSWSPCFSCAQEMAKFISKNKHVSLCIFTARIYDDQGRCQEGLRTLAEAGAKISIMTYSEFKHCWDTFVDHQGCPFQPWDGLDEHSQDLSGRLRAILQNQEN

[7] = target: T3, Short transient receptor potential channel 4 (Mus musculus, UniProt Q9QUQ5); test: block of DAMGO-driven TRPC4 calcium entry – cell-based, HEK293 TRPC4/mu-opioid, Fluo-4 calcium, dose response (AID 434942); assay type: functional;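 further: potency of inhibitors blocking the TRPC4 calcium response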
T3 sequence (Q9QUQ5 whole entry): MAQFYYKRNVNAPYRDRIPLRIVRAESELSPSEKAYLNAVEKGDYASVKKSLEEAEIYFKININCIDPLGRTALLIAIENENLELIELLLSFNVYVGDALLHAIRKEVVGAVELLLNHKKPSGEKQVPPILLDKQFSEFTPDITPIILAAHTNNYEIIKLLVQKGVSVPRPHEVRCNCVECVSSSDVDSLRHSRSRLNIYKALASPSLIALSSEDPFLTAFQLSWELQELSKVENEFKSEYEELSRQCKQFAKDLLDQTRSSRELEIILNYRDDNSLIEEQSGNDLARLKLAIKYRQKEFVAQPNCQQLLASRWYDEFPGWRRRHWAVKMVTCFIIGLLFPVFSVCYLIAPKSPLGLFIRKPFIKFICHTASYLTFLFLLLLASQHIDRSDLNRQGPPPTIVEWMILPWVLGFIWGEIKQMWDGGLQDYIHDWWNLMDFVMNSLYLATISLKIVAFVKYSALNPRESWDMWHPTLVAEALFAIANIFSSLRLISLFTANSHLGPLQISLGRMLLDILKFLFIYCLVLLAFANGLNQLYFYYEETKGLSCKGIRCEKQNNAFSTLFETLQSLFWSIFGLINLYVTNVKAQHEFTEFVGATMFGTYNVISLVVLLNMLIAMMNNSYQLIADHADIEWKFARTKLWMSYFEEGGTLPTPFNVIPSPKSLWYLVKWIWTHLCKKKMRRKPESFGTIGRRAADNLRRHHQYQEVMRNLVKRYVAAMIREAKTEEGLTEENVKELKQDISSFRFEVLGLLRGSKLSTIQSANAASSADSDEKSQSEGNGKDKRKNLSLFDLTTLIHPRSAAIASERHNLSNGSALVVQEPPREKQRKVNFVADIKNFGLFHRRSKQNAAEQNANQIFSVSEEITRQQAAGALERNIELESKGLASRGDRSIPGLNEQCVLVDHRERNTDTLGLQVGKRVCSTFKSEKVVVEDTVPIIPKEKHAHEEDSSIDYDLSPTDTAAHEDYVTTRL

[8] = target: G-protein coupled receptor 55 (Homo sapiens, UniProt Q9Y2T6); test: inhibition of LPI-stimulated GPR55 beta-arrestin translocation – imaging, U2OS, beta-arrestin-GFP, LPI agonist, primary screen (AID 2013); assay type: functional;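 further: antagonist potency measured as reduced agonist-driven arrestin aggregation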
G-protein coupled receptor 55, sequence (Q9Y2T6 whole entry, the tested form may be a part): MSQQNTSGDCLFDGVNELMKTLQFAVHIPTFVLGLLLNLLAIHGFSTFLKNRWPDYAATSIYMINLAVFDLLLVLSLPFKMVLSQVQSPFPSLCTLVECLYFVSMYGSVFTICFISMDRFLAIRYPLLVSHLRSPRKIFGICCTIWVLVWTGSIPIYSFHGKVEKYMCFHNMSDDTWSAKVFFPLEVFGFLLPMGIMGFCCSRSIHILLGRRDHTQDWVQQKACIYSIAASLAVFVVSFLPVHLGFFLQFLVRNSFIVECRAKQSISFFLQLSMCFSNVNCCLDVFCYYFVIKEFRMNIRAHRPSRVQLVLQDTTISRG

[9] = target: T4, RNA-binding protein pos-1 (Caenorhabditis elegans, UniProt G5EF15); test: disruptors of C. elegans POS-1 RNA interaction – biochemical, fluorescence polarization, dose response (AID 1964);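 further: purified POS-1 fused to maltose binding protein made in E. coli; potency of compounds blocking POS-1 binding to fluorescent RNA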
T4 sequence (G5EF15 whole entry): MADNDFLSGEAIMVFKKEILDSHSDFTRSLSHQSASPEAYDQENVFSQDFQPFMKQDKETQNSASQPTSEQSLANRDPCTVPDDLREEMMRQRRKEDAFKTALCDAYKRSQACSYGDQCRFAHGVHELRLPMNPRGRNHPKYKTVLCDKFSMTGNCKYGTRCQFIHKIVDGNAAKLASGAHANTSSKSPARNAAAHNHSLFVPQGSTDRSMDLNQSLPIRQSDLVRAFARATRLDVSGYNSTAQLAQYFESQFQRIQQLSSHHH

[10] = target: T5, Zinc finger protein mex-5 (Caenorhabditis elegans, UniProt Q9XUB2); test: potency of MEX-5 RNA-binding blockers – biochemical, C. elegans, fluorescence polarization, dose response (AID 1960)
T5 sequence (Q9XUB2 whole entry): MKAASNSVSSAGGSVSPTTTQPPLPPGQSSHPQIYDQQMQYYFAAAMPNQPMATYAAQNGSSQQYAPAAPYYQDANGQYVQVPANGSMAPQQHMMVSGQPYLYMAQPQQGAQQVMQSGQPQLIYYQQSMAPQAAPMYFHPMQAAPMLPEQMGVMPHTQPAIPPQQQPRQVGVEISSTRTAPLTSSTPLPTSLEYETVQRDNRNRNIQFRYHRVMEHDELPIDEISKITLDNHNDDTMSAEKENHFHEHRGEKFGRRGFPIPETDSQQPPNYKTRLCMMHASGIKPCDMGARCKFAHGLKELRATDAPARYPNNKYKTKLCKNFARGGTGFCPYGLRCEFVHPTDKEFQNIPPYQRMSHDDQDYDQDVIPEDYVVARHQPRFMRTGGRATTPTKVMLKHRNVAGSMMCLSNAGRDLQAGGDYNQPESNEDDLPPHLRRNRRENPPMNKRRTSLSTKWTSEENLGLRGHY

Protein Tat = target: T6, Protein Tat (Human immunodeficiency virus type 1 group M subtype B (isolate HXB2)(HIV-1), UniProt P04608); assay type: functional;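 further: tat binding to TAR RNA read out by fluorescence polarization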
T6 sequence (P04608 whole entry): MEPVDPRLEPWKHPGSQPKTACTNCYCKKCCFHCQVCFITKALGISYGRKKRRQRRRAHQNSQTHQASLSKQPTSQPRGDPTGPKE

[11] = target: Ras and Rab interactor 1/Tyrosine-protein kinase ABL1 (Homo sapiens, UniProt P00519+Q13671); assay type: functional;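 further: biochemical TR-FRET dose-response test measuring inhibition of binding between Rin1 and Abl proteins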
Ras and Rab interactor 1/Tyrosine-protein kinase ABL1, sequence (P00519 whole entry): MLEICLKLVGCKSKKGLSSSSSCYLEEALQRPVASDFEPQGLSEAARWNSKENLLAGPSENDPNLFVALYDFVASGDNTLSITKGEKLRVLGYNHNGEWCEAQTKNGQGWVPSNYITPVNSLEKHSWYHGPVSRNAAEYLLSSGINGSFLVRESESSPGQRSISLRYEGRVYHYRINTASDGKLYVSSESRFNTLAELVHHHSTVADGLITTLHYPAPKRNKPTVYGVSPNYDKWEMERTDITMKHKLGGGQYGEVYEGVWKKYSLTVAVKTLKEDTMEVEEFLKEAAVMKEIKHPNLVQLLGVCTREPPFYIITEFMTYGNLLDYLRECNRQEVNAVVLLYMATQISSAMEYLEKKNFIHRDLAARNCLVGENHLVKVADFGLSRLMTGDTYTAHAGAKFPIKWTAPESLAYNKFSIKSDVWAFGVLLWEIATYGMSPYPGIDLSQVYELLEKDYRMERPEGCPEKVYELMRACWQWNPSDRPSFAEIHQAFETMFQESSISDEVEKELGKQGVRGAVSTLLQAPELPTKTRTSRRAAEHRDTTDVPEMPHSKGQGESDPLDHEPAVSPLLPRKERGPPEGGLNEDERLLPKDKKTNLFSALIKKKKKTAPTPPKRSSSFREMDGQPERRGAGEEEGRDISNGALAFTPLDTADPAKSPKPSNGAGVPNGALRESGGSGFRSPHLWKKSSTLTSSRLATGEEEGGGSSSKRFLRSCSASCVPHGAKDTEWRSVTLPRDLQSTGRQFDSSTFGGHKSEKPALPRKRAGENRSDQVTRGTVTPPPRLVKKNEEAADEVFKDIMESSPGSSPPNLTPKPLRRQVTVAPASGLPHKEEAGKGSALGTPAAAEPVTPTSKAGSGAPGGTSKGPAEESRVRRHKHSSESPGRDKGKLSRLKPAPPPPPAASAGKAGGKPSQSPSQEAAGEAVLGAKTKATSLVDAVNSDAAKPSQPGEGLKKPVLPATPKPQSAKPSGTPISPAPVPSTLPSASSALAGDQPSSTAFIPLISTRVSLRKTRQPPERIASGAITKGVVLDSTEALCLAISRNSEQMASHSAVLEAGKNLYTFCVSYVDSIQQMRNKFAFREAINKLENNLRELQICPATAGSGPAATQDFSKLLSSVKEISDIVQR
Ras and Rab interactor 1/Tyrosine-protein kinase ABL1, sequence (Q13671 whole entry): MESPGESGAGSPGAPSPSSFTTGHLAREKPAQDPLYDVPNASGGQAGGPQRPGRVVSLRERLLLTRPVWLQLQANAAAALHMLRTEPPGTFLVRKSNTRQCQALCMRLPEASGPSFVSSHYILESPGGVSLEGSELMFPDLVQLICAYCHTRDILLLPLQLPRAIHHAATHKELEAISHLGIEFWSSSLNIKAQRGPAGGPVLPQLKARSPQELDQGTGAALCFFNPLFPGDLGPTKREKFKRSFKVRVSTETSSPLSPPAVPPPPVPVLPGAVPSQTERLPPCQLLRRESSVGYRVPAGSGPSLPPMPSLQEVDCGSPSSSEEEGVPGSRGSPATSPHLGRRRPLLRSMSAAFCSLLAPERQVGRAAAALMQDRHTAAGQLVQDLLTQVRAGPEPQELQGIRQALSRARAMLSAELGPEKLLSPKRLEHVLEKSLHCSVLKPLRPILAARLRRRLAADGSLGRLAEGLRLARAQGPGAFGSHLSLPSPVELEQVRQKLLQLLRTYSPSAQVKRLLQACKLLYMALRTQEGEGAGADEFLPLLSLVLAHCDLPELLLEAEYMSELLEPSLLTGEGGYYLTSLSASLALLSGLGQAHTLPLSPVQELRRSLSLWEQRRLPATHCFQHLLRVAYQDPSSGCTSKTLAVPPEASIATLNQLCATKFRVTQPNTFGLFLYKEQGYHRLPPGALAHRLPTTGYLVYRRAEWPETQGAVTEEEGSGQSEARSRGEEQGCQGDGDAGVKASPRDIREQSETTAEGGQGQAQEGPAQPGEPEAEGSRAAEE

[12] = target: T7, Mannose-6-phosphate isomerase (Homo sapiens, UniProt P34949); test: MPI enzyme activity inhibition – biochemical, fluorescence intensity, coupled assay, primary screen (AID 1209)
T7 sequence (P34949 whole entry): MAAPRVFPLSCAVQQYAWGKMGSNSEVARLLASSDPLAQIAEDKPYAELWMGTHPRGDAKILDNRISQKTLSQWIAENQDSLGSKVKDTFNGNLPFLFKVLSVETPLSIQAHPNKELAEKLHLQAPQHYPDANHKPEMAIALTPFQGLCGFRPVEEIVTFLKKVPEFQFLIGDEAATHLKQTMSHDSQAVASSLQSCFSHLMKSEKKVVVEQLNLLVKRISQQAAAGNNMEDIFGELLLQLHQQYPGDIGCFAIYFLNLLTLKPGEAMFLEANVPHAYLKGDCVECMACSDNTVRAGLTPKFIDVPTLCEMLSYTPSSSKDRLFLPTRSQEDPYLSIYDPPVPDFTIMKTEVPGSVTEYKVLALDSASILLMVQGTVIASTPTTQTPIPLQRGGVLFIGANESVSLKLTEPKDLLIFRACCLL

Nonstructural protein 1 = Nonstructural protein 1 (Influenza A virus, UniProt Q194T2); assay type: functional, Influenza A virus (A/California/07/2009(H1N1))
Nonstructural protein 1, sequence (Q194T2 whole entry): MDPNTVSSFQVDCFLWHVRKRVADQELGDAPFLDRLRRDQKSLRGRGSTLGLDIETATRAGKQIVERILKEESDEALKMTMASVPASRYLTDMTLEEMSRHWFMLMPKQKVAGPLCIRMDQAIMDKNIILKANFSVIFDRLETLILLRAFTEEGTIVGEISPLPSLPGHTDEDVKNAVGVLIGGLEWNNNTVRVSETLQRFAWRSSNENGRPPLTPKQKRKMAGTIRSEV

[13] = target: T8, Long-chain-fatty-acid--AMP ligase FadD28 (Mycobacterium tuberculosis, UniProt P9WQ59); test: Fluorescence polarization aasay to screen for inhibitors that compete for the binding of FadD28 to a bisubstrate Measured in Biochemical System Using Plate Reader - 2147-01_Inhibitor_Dose_CherryPick_Activity.; assay type: functional, Mycobacterium tuberculosis H37Rv
T8 sequence (P9WQ59 whole entry): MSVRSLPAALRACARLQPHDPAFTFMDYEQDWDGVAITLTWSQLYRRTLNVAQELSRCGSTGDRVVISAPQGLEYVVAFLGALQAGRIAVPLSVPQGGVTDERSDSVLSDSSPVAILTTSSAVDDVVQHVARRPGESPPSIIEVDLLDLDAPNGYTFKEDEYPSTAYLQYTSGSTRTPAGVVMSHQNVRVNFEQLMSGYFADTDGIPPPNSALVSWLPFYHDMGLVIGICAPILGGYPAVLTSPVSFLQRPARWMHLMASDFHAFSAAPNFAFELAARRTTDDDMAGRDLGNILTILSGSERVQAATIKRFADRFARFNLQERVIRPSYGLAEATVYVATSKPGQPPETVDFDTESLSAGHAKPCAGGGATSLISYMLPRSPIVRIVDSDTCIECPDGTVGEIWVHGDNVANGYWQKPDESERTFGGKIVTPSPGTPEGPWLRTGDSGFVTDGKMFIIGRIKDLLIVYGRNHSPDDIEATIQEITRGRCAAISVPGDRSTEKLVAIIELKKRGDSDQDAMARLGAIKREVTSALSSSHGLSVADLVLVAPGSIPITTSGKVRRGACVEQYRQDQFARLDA

[14] = target: Eukaryotic translation initiation factor 4E (Mus musculus, UniProt P63073); test: blockers of eIF4G binding by eIF4E – biochemical, TR-FRET, dose response (AID 855); assay type: functional;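 further: potency for disrupting eIF4E binding to eIF4GI seen as loss of FRET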
Eukaryotic translation initiation factor 4E, sequence (P63073 whole entry): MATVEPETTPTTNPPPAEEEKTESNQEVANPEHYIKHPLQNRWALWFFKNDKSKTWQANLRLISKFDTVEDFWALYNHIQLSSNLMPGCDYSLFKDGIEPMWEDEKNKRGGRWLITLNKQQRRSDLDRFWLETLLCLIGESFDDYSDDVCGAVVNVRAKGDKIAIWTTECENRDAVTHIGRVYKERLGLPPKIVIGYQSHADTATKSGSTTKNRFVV

For O=C(Nc1nnc(-c2ccncc2)o1)c1ccc(Br)s1, the EC50 (Streptococcus) was 11.8 µM (active), the EC50 [1] was 3.57 µM (active) and the CC50 [2] was 23.7 µM (active). The CC50 [3] was 16.8 µM (active), the IC50 (cells) was 18.3 µM (active) and the EC50 (Streptokinase A) was > 150 µM (not active). The CC50 [4] was 19.3 µM (active).

With Cc1nc(SCc2ccccc2)c2ccsc2n1 the IC50 (Coagulation factor XII) was > 50 µM (inactive).

With CCn1c(S)nnc1CSCc1ccccc1 the IC50 [5] was > 100 µM (inactive) and the IC50 [6] was 8.31 µM (active).

For CCOC(=O)c1c(N)sc(C(O)(C(F)(F)F)C(F)(F)F)c1-c1ccccc1, the EC50 [7] was 7.5 µM (active) and the IC50 [8] was 3.66 µM (active).

In the case of N#Cc1cnn(Cc2ccc(Cl)cc2)c1N, the IC50 (Coagulation factor XII) is reported as > 50 µM (inactive).

For CC(C)CC(=O)NC(Oc1ccc(Cl)cc1)C(Cl)(Cl)Cl (centres undefined), the IC50 [8] was 1.17 µM (active).

For Cc1ccc(-n2c(C)cc(C3=NN=C(NC4CC4)SC3)c2C)cc1C, the CC50 [2] was 20 µM (active), the CC50 [3] was > 20 µM (active) and the IC50 (cells) was 39 µM (active). For the same compound, the CC50 [4] was > 20 µM (active).

For CC(=O)NC(CC(=O)OCC(=O)c1c(N)n(C)c(=O)n(C)c1=O)c1ccccc1 (centres undefined), the IC50 (Coagulation factor XII) was > 50 µM (inactive).

In the case of Cc1c2cc(O)c(=O)cc-2oc2cc(O)c(O)cc12, the EC50 [9] is reported as 1.9 µM (inconclusive), the EC50 [10] is reported as 0.082 µM (active) and the IC50 (Protein Tat) is reported as 31.3 µM (inconclusive) and > 52.2 µM (active). The IC50 [11] was 0.835 µM (active), the IC50 [12] was 3.55 µM (active) and the IC50 (Nonstructural protein 1) was 30.5 µM (active). The AC50 [13] was 4.65 µM (active) and the IC50 [14] was 43.3 µM (inactive).

For Cc1cc(-c2nnc(S)n2/N=C/c2ccc(C)o2)n[nH]1, the IC50 [5] was > 100 µM (inactive) and the IC50 [6] was 5.66 µM (active).
